Data on two compounds can be found in patent publication US9198907B2, “Combinations of a HCV inhibitor such as bicyclic pyrrole derivatives and a therapeutic agent” (PTC Therapeutics, Inc., priority 2009, dated 2015).

The structures appear in SMILES notation.

This test relates to HCV replicon RNA in replicon cells. The test can be described thus: Replicon RNA response to antiviral agent(s), replicon RNA level by real time PCR (Taqman assay). It counts as cell-based. The method, then: Replicon cells were seeded at ˜5000 cells/well in 96-well collagen I-coated Biocoat plates (Becton Dickinson). At 24 hrs post-seeding, a series of replicon cells were treated with a HCV protease inhibitor and a HCV inhibitor. The final concentration of DMSO was 0.5%, fetal bovine serum was 10%, and G418 (an aminoglycoside used as a selective agent) was 500 μg/mL.
To each concentration of Compound 10p, HCV inhibitor Compound 22 was titrated. After 3 days, the cells were washed with PBS and lysed in 1× Cell Lysis Buffer (Ambion cat #8721).
The replicon RNA level was measured using real time PCR (Taqman assay). The ampicon was located in NS5b. The PCR primers used were: 5B.2F, ATGGACAGGCGCCCTGA (SEQ ID NO: 1); 5B.2R, […] (SEQ ID NO: 2); the probe sequence was FAM-labeled CACGCCATGCGCTGCGG (SEQ ID NO: 3). GAPDH RNA was used as endogenous control and was amplified in the same reaction as NS5b (multiplex PCR) using primers and VIC-labeled probe recommended by the manufacturer (PE Applied Biosystem). The real-time RT-PCR reactions were run on ABI PRISM 7900HT Sequence Detection System using the following program: 48° C. for 30 min, 95° C. for 10 min, 40 cycles of 95° C. for 15 sec, 60° C. for 1 min. The ΔCT values (CT5B-CTGAPDH) were plotted against test compound concentration and fitted to the sigmoid dose response model using Graphpad PRISM software (Graphpad Software Inc.). The half maximal inhibitory concentration (IC50) is the concentration necessary to achieve ΔCT=1 over the projected baseline. The 90% maximal inhibitory concentration (IC90) is the concentration necessary to achieve ΔCT=3.2 over the baseline. Alternatively, to quantitate the absolute amount of replicon RNA, a standard curve was established by including serially diluted T7 transcripts of replicon RNA in the Taqman assay. All Taqman reagents were from PE Applied Biosystem.

As for `COc1cnc2c(c1)c(C#N)c(-c1ccc(S(=O)(=O)N[C@@H](C)C(F)(F)F)cn1)n2C1CCC1` [Cpd 22, 6-(3-cyano-1-cyclobutyl-5-methoxy-1H-pyrrolo[2,3-b]pyridin-2-yl)-N-[(2S)-1,1,1-trifluoropropan-2-yl]pyridine-3-sulfonamide], the “relative inhibition (logarithmic scale) of replicon RNA” value runs as follows: (combination: Compound 22 0.045 μM + Cpd 10p 0.15 μM, 3 days) −1.09; (combination: Compound 22 0.045 μM + Cpd 10p 1.2 μM, 3 days) −1.77; (combination: Compound 22 0.405 μM + Cpd 10p 0.15 μM, 3 days) −1.45; (combination: Compound 22 0.405 μM + Cpd 10p 1.2 μM, 3 days) −1.91.

For the compound `CC(C)(C)NC(=O)N[C@H](C(=O)N1C[C@H]2[C@@H]([C@H]1C(=O)NC(CC1CCC1)C(=O)C(N)=O)C2(C)C)C(C)(C)C` (stereo partly drawn) [Cpd 10p, (1R,2S,5S)-N-(4-amino-1-cyclobutyl-3,4-dioxobutan-2-yl)-3-((S)-2-(3-tert-butylureido)-3,3-dimethylbutanoyl)-6,6-dimethyl-3-azabicyclo[3.1.0]hexane-2-carboxamide, reference compound], the “relative inhibition (logarithmic scale) of replicon RNA” value (Cpd 10p 0.15 μM, Compound 22 0 μM, replicon cells treated 3 days) was −0.74 and the “relative inhibition (logarithmic scale) of replicon RNA” value (Cpd 10p 1.2 μM, Compound 22 0 μM, replicon cells treated 3 days) is listed as −1.72.
